Assay results taken from patent publication US11518761B2, “CDPK1 inhibitors, compositions, and methods related thereto” (Vyera Pharmaceuticals, LLC, priority 2017, dated 2022).
pIC50: −log10 of the molar value.

These molecules were tested against T. gondii CDPK1 (tgCDPK1) (Toxoplasma gondii, UniProt Q9BJF5) (assay: biochemical). Settings: at least three independent replicates.
Protocol: Certain of the compounds prepared as described above were assayed to determine their IC50 for inhibition of T. gondii CDPK1 (tgCDPK1). At least three independent replicates of the assay were conducted for each compound tested.

Sequence of T. gondii CDPK1 (tgCDPK1) (Q9BJF5 1-507): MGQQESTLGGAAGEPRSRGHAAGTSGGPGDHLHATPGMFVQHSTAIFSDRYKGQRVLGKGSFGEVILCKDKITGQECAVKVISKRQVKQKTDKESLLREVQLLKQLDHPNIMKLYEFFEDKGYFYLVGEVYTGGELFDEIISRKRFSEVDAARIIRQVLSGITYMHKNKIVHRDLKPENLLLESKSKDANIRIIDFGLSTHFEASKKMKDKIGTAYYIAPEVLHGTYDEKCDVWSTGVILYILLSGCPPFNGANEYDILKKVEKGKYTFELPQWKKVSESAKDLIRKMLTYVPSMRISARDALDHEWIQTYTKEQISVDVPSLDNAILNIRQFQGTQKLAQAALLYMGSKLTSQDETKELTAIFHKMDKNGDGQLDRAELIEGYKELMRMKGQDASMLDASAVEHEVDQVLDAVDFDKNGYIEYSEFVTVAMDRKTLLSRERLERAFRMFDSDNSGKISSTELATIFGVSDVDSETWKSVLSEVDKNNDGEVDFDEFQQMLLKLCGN

Row | Molecule | pIC50
1 | Nc1ncnc2c1c(Oc1cc(C(F)(F)F)ccn1)nn2C1CC1 [Compound 77, 1-cyclopropyl-3-((4-(trifluoromethyl)pyridin-2-yl)oxy)-1H-pyrazolo[3,4-d]pyrimidin-4-amine] | 7.78
2 | Nc1ncnc2c1c(Cc1cccc(Cl)c1)nn2[C@H]1C[C@@H](O)C1 [Compound 130, (cis)-3-(4-amino-3-(3-chlorobenzyl)-1H-pyrazolo[3,4-d]pyrimidin-1-yl)cyclobutan-1-ol] | 7.81
3 | Nc1ncnc2c1c(Cc1cccc(F)c1)nn2[C@H]1C[C@@H](O)C1 [Compound 132] | 7.55
4 | Nc1ncnc2c1c(Oc1cccc(Cl)c1)nn2[C@H]1C[C@@H](O)C1 [Compound 152] | 7.56
5 | Nc1ncnc2c1c(Oc1cccc(F)c1)nn2[C@H]1C[C@@H](O)C1 [Compound 153, (cis)-3-(4-ammo-3-(3-fluorophenoxy)-1H-pyrazolo[3,4-d]pyrimidin-1-yl)cyclobutan-1-ol] | 7.47
6 | Nc1ncnc2c1c(Cc1c[nH]c3ccc(F)cc13)nn2[C@H]1C[C@H](O)C1 [Compound 154, (trans)-3-(4-amino-3-((5-fluoro-1H-indol-3-yl)methyl)-1H-pyrazolo[3,4-d]pyrimidin-1-yl)cyclobutan-1-ol] | 7.93
7 | Nc1ncnc2c1c(Oc1cccc(F)c1)nn2[C@H]1C[C@H](O)C1 [Compound 155, (trans)-3-(4-amino-3-(3-fluorophenoxy)-1H-pyrazolo[3,4-d]pyrimidin-1-yl)cyclobulan-1-ol] | 7.42
8 | Nc1ncnc2c1c(Oc1cc(Cl)ccn1)nn2[C@H]1C[C@H](F)C1 [Compound 158, 3-[(4-chloropyridin-2-yl)oxy]-1-[(trans)-3-fluorocyclobutyl]-l H-pyrazolo[3,4-d]pyrimidin-4-amine] | 7.94
9 | Nc1ncnc2c1c(Oc1cccc(C(F)(F)F)c1)nn2[C@H]1C[C@H](F)C1 [Compound 166] | 7.54
10 | (2-((4-amino-1-cyclopropyl-1H-pyrazolo[3,4-d]pyrimidin-3-yl)oxy)pyrimidin-4-yl)methanol [Compound 86] | 7.53
